# Species on record: Rattus norvegicus
# Experiment: DrugMatrix - Regimen: Daily Repeat
# Format: toxicity, organism-based, Sprague-Dawley
# Design: regimen Daily Repeat, gender Male, age 6-8 weeks
# Settings: in vivo, po, route oral GAVAGE, […]; for ABSOLUTE BASOPHIL / ABSOLUTE EOSINOPHIL / ABSOLUTE LYMPHOCYTE / ABSOLUTE MONOCYTE / ABSOLUTE SEGMENTED NEUTROPHIL / BASOPHIL / EOSINOPHIL / ERYTHROCYTE COUNT / HEMATOCRIT / LEUKOCYTE COUNT / LYMPHOCYTE / MEAN CORPUSCULAR HEMOGLOBIN / MEAN CORPUSCULAR HEMOGLOBIN CONCENTRATION / MEAN CORPUSCULAR VOLUME / NEUTROPHIL / NUCLEATED RED BLOOD CELLS / PLATELET COUNT / HEMOGLOBIN: tissue Blood; for ALANINE AMINOTRANSFERASE / ALBUMIN / ALKALINE PHOSPHATASE / ASPARTATE AMINOTRANSFERASE / BLOOD UREA NITROGEN / CARBON DIOXIDE / CHLORIDE / CHOLESTEROL / CREATINE PHOSPHOKINASE / CREATININE / LACTATE DEHYDROGENASE / LIPASE / PHOSPHORUS / POTASSIUM / SODIUM / TOTAL BILIRUBIN / URIC ACID: tissue Plasma
# [1] = 0 mg/kg, 72 h, dose level Control, time 3 day
# [2] = 0 mg/kg, 120 h, dose level Control, time 5 day
# [3] = 0 mg/kg, dose level Control, time 28 day
# [4] = 10 mg/kg, 72 h, dose level High, time 3 day
# [5] = 10 mg/kg, 120 h, dose level High, time 5 day
smiles,measurement,setting,value
O=C(O)Cc1ccccc1Nc1c(Cl)cccc1Cl [DICLOFENAC],ABSOLUTE BASOPHIL,[1],0 CELLS/uL
same,ABSOLUTE EOSINOPHIL,[1],0 CELLS/uL
same,ABSOLUTE LYMPHOCYTE,[1],8493 CELLS/uL
same,ABSOLUTE MONOCYTE,[1],127 CELLS/uL
same,ABSOLUTE SEGMENTED NEUTROPHIL,[1],896.67 CELLS/uL
same,BASOPHIL,[1],0%
same,EOSINOPHIL,[1],0%
same,ERYTHROCYTE COUNT,[1],5.53 x10E6/uL
same,HEMATOCRIT,[1],34.07%
same,LEUKOCYTE COUNT,[1],9.52 x10E3/uL
same,LYMPHOCYTE,[1],89.17%
same,MEAN CORPUSCULAR HEMOGLOBIN,[1],24.07 pg
same,MEAN CORPUSCULAR HEMOGLOBIN CONCENTRATION,[1],39.03 G/DL
same,MEAN CORPUSCULAR VOLUME,[1],61.62 fL
same,NEUTROPHIL,[1],9.5%
same,NUCLEATED RED BLOOD CELLS,[1],0.17 /100WBC
same,PLATELET COUNT,[1],1054.17 x10E3/uL
same,ALANINE AMINOTRANSFERASE,[1],77.67 u/L
same,ALBUMIN,[1],4.08 G/DL
same,ALKALINE PHOSPHATASE,[1],404.5 u/L
same,ASPARTATE AMINOTRANSFERASE,[1],83.17 u/L
same,BLOOD UREA NITROGEN,[1],14.33 mg/dL
same,CARBON DIOXIDE,[1],33.17 mmol/L
same,CHLORIDE,[1],101 MEQ/L
same,CHOLESTEROL,[1],76.33 mg/dL
same,CREATINE PHOSPHOKINASE,[1],184.5 u/L
same,CREATININE,[1],0.13 mg/dL
same,LACTATE DEHYDROGENASE,[1],130.33 u/L
same,LIPASE,[1],11 u/L
same,PHOSPHORUS,[1],9.27 mg/dL
same,POTASSIUM,[1],6.26 MEQ/L
same,SODIUM,[1],143.57 MEQ/L
same,TOTAL BILIRUBIN,[1],0.18 mg/dL
same,URIC ACID,[1],1.38 mg/dL
same,ABSOLUTE BASOPHIL,[2],0 CELLS/uL
same,ABSOLUTE EOSINOPHIL,[2],0 CELLS/uL
same,ABSOLUTE LYMPHOCYTE,[2],8546.17 CELLS/uL
same,ABSOLUTE MONOCYTE,[2],49.5 CELLS/uL
same,ABSOLUTE SEGMENTED NEUTROPHIL,[2],554.33 CELLS/uL
same,NUCLEATED RED BLOOD CELLS,[2],0.17 /100WBC
same,CARBON DIOXIDE,[2],33.17 mmol/L
same,CREATININE,[2],0.18 mg/dL
same,LACTATE DEHYDROGENASE,[2],111.5 u/L
same,LIPASE,[2],9.5 u/L
same,URIC ACID,[2],0.78 mg/dL
same,BASOPHIL,[3],0.42%
same,EOSINOPHIL,[3],0.58%
same,ERYTHROCYTE COUNT,[3],8.06 x10E6/uL
same,HEMATOCRIT,[3],48.44%
same,HEMOGLOBIN,[3],16.34 G/DL
same,LEUKOCYTE COUNT,[3],13.04 x10E3/uL
same,LYMPHOCYTE,[3],85.12%
same,MEAN CORPUSCULAR HEMOGLOBIN,[3],20.26 pg
same,MEAN CORPUSCULAR HEMOGLOBIN CONCENTRATION,[3],33.74 G/DL
same,MEAN CORPUSCULAR VOLUME,[3],60.1 fL
same,NEUTROPHIL,[3],11.28%
same,PLATELET COUNT,[3],1226 x10E3/uL
same,ALANINE AMINOTRANSFERASE,[3],28.6 u/L
same,ALBUMIN,[3],3.94 G/DL
same,ALKALINE PHOSPHATASE,[3],254.6 u/L
same,ASPARTATE AMINOTRANSFERASE,[3],67.8 u/L
same,BLOOD UREA NITROGEN,[3],10.4 mg/dL
same,CHLORIDE,[3],104.6 MEQ/L
same,CHOLESTEROL,[3],57.6 mg/dL
same,CREATINE PHOSPHOKINASE,[3],224.8 u/L
same,CREATININE,[3],0.4 mg/dL
same,PHOSPHORUS,[3],10.66 mg/dL
same,POTASSIUM,[3],6.58 MEQ/L
same,SODIUM,[3],148.6 MEQ/L
same,TOTAL BILIRUBIN,[3],0.24 mg/dL
same,ABSOLUTE BASOPHIL,[4],0 CELLS/uL
same,ABSOLUTE EOSINOPHIL,[4],0 CELLS/uL
same,ABSOLUTE LYMPHOCYTE,[4],9500.33 CELLS/uL
same,ABSOLUTE MONOCYTE,[4],68 CELLS/uL
same,ABSOLUTE SEGMENTED NEUTROPHIL,[4],1065 CELLS/uL
same,BASOPHIL,[4],0%
same,EOSINOPHIL,[4],0%
same,ERYTHROCYTE COUNT,[4],5.04 x10E6/uL
same,HEMATOCRIT,[4],30.83%
same,HEMOGLOBIN,[4],12.23 G/DL
same,LEUKOCYTE COUNT,[4],10.63 x10E3/uL
same,LYMPHOCYTE,[4],90%
same,MEAN CORPUSCULAR HEMOGLOBIN,[4],24.3 pg
same,MEAN CORPUSCULAR HEMOGLOBIN CONCENTRATION,[4],39.67 G/DL
same,MEAN CORPUSCULAR VOLUME,[4],61.23 fL
same,NEUTROPHIL,[4],9%
same,NUCLEATED RED BLOOD CELLS,[4],0 /100WBC
same,PLATELET COUNT,[4],988.67 x10E3/uL
same,ALANINE AMINOTRANSFERASE,[4],55.67 u/L
same,ALBUMIN,[4],3.43 G/DL
same,ALKALINE PHOSPHATASE,[4],322 u/L
same,ASPARTATE AMINOTRANSFERASE,[4],70.67 u/L
same,BLOOD UREA NITROGEN,[4],11.67 mg/dL
same,CARBON DIOXIDE,[4],33.33 mmol/L
same,CHLORIDE,[4],101 MEQ/L
same,CHOLESTEROL,[4],79.33 mg/dL
same,CREATINE PHOSPHOKINASE,[4],148 u/L
same,CREATININE,[4],0.12 mg/dL
same,LACTATE DEHYDROGENASE,[4],105 u/L
same,LIPASE,[4],9.33 u/L
same,PHOSPHORUS,[4],10 mg/dL
same,POTASSIUM,[4],6.12 MEQ/L
same,SODIUM,[4],145.77 MEQ/L
same,TOTAL BILIRUBIN,[4],0.17 mg/dL
same,URIC ACID,[4],1.47 mg/dL
same,ABSOLUTE BASOPHIL,[5],0 CELLS/uL
same,ABSOLUTE EOSINOPHIL,[5],0 CELLS/uL
same,ABSOLUTE LYMPHOCYTE,[5],5111.33 CELLS/uL
same,ABSOLUTE MONOCYTE,[5],0 CELLS/uL
same,ABSOLUTE SEGMENTED NEUTROPHIL,[5],1222 CELLS/uL
same,BASOPHIL,[5],0%
same,EOSINOPHIL,[5],0%
same,ERYTHROCYTE COUNT,[5],4.43 x10E6/uL
same,HEMATOCRIT,[5],26.73%
same,HEMOGLOBIN,[5],10.7 G/DL
same,LEUKOCYTE COUNT,[5],6.33 x10E3/uL
same,LYMPHOCYTE,[5],76.67%
same,MEAN CORPUSCULAR HEMOGLOBIN,[5],24.2 pg
same,MEAN CORPUSCULAR HEMOGLOBIN CONCENTRATION,[5],40.03 G/DL
same,MEAN CORPUSCULAR VOLUME,[5],60.47 fL
same,NEUTROPHIL,[5],23.33%
same,NUCLEATED RED BLOOD CELLS,[5],0.67 /100WBC
same,PLATELET COUNT,[5],1253.67 x10E3/uL
same,ALANINE AMINOTRANSFERASE,[5],24 u/L
same,ALBUMIN,[5],2.23 G/DL
same,ALKALINE PHOSPHATASE,[5],221.33 u/L
same,ASPARTATE AMINOTRANSFERASE,[5],56 u/L
same,BLOOD UREA NITROGEN,[5],17.33 mg/dL
same,CARBON DIOXIDE,[5],31.67 mmol/L

# — ChEMBL document CHEMBL3885881, “DrugMatrix”
